Experiments:
A549 cells = conditions: data provided by National Cancer Institute; cited from earlier work
[1] = test system: SKOV-3 human ovarian carcinoma; assay: Tumor growth delay (TGD) study, established SKOV-3 tumors in athymic nude mice; assay type: in vivo; conditions: 30 mg/kg i.v. qod×5
Experimental: Certain of the chemical entities described herein were evaluated for in vivo activity against SKOV-3 human ovarian carcinoma in a tumor growth delay (TGD) study. The study utilized eight groups (n=8) of athymic nude mice bearing established (63-144 mm3) SKOV-3 tumors on Day 1, and included a vehicle-treated tumor growth control group and a reference group treated with paclitaxel (30 mg/kg i.v. qod×5). A first chemical entity was evaluated at doses of 300 or 150 mg/kg administered intraperitoneally (i.p.) once daily and at 150 mg/kg administered i.p. twice daily. Doses were administered on study days 1 to 5 and 8 to 12. Tumors were measured twice weekly during the 60-day study. Each animal was euthanized when its tumor reached the endpoint volume of 1500 mm3 or on Day 60, whichever came first, and the time to endpoint (TTE) was calculated for each mouse. Treatment outcome was determined from percent tumor growth delay (% TGD), defined as the percent increase in median TTE of treated versus control mice, with differences in TTE values deemed significant at P □0.05 using logrank analysis. The results presented were calculated based on data acquired through day 33 of the study. The median TTE of the untreated control group was 20.8 days.
A second chemical entity was similarly evaluated at 500 mg/kg administered i.p. once daily.

Row | SMILES | GI50 (A549 cells) [µM] | percent tumor growth delay (% TGD) ([1]; data through day 33, statistically significant) [%] | tumor growth delay (T-C) ([1]; maximum possible in this study, untreated control median TTE 20.8 days) [days]
1 | NC(=O)NO [hydroxyurea] | 500 |  | 
2 | O=c1[nH]cc(F)c(=O)[nH]1 [5-fluorouracil] | 1 |  | 
3 | CC(=O)O[C@H]1C(=O)[C@@]2(C)[C@H]([C@H](OC(=O)c3ccccc3)[C@]3(O)C[C@H](OC(=O)[C@H](O)[C@@H](NC(=O)c4ccccc4)c4ccccc4)C(C)=C1C3(C)C)[C@]1(OC(C)=O)CO[C@@H]1C[C@@H]2O [paclitaxel] | 0.004 | 58 | 12.2
4 | COc1cccc2c1C(=O)c1c(O)c3c(c(O)c1C2=O)C[C@@](O)(C(=O)CO)C[C@@H]3O[C@H]1C[C@H](N)[C@H](O)[C@H](C)O1 [doxorubicin] | 0.063 |  | 
